{"source": "ChEMBL document CHEMBL3507680", "about": "“University of Dundee, Gates Library screen for HepG2 cell viability”"}
{"assay": "Human HepG2 cell viability assay in 384 well format", "type": "toxicity, cell-based", "set-up": "dose 125 nL, time 70.5 hour; cytotoxicity at 70.5 h: concentration not given beside the values", "details": "HepG2 cells, read-out: Inhibition", "units": {"cytotoxicity at 70.5 h": "%"}}
{"smiles": "CNC(=O)[C@H]1C[C@@H]2CN(C(=O)c3ccsc3)C[C@@H]2N1S(C)(=O)=O", "cytotoxicity at 70.5 h": -10.8}
{"smiles": "Cc1cc(CN2CC[C@H]3[C@H]2CCN3CC(=O)N(C)C)oc1C", "cytotoxicity at 70.5 h": -5}
{"smiles": "COc1nc2cc(C)ccc2cc1CN(C)Cc1cc(C)[nH]n1", "cytotoxicity at 70.5 h": -6.96}
{"smiles": "Cc1nc(N2CCOCC2)nc2c1CCN(C(=O)C1CC1)CC2", "cytotoxicity at 70.5 h": -13.2}
{"smiles": "COCC(=O)N1CCC(c2cc(-c3ccc(N)nc3)cc(C)n2)CC1", "cytotoxicity at 70.5 h": 19.1}
{"smiles": "CCOC(=O)[C@@H]1[C@@H](c2ccccc2)CN2CCN(C(C)=O)C[C@H]12", "cytotoxicity at 70.5 h": -4.08}
{"smiles": "Cc1cc(-c2cncnc2)nc(C2CCCN2S(C)(=O)=O)n1", "note": "(stereo not given)", "cytotoxicity at 70.5 h": -2.87}
{"smiles": "O=C1CC2(CCN(Cc3ccc(Cl)s3)C2)C(=O)N1", "note": "(stereo not given)", "cytotoxicity at 70.5 h": -9.8}
{"smiles": "Cc1cc(=O)[nH]c(-n2nc(C)c(CCC(=O)NCc3cccs3)c2C)n1", "cytotoxicity at 70.5 h": -0.337}
{"smiles": "O=C(c1cccnc1)N1CCc2[nH]nc(Nc3ccccc3)c2C1", "cytotoxicity at 70.5 h": -6.1}
{"smiles": "COc1ccc(OCC(=O)NS(=O)(=O)c2cc(F)ccc2F)cc1", "cytotoxicity at 70.5 h": 20.8}
{"smiles": "CCCN(CCC)S(=O)(=O)c1cc(NC(C)=O)ccc1C", "cytotoxicity at 70.5 h": 4.44}
{"smiles": "Cc1nc(-c2ccc(CC(=O)N3CCN(C(=O)C4CC4)CC3)cc2)cs1", "cytotoxicity at 70.5 h": -1.62}
{"smiles": "CCO[C@@H]1CC[C@H]2[C@H]1OCCN2S(=O)(=O)C1CC1", "cytotoxicity at 70.5 h": -11.4}
{"smiles": "Cc1ccc(NC2CCN(C(=O)Cc3ccc(C#N)cc3)CC2)nn1", "cytotoxicity at 70.5 h": -1.55}
{"smiles": "CCCC(=O)N1CCC(C(=O)NCCN2CCC(C)CC2)CC1", "cytotoxicity at 70.5 h": -1.92}
{"smiles": "OCC(O)CN(CCN1CCOCC1)Cc1ccco1", "note": "(stereo not given)", "cytotoxicity at 70.5 h": -8.67}
{"smiles": "CCOc1cccc2c1OCC(C(=O)NS(=O)(=O)c1cncc(Br)c1)=C2", "cytotoxicity at 70.5 h": 2.74}
{"smiles": "Cc1cn2c(n1)C(CNCc1cccc3c1OCO3)CCC2", "note": "(stereo not given)", "cytotoxicity at 70.5 h": 23.3}
{"smiles": "COCC1CN(Cc2ccc(OC)cc2)S(=O)(=O)c2cnccc2O1", "note": "(stereo not given)", "cytotoxicity at 70.5 h": -3.12}
{"smiles": "Cc1noc(C)c1CC(=O)N1CC[C@@](C)(O)[C@H](Oc2ccccc2)C1", "cytotoxicity at 70.5 h": -2.99}
{"smiles": "COc1ccc(CNCc2c(C(C)C)nn(C)c2N(C)C)cn1", "cytotoxicity at 70.5 h": 0.065}
{"smiles": "COc1ccc(C(=O)NCc2ccon2)cc1F", "cytotoxicity at 70.5 h": -5.07}
{"smiles": "COc1cccc(OCC2CCCN(C(=O)CCCn3cccn3)C2)c1", "note": "(stereo not given)", "cytotoxicity at 70.5 h": -11}
{"smiles": "O=C(Nc1ccc(-n2cccn2)cc1)N1C[C@H](O)[C@@H](N2CCOCC2)C1", "cytotoxicity at 70.5 h": -13.4}
{"smiles": "CS(=O)(=O)N1CCN(C(=O)C2CSCCC(=O)N2)CC1", "note": "(stereo not given)", "cytotoxicity at 70.5 h": 19.7}
{"smiles": "CC1CN(c2ccc(NC(=O)Cn3cccn3)cc2)CCO1", "note": "(stereo not given)", "cytotoxicity at 70.5 h": -5.08}
{"smiles": "Cc1ccc(Cn2c(=O)[nH]c3csnc3c2=O)cc1", "cytotoxicity at 70.5 h": -13.9}
{"smiles": "CC(C)=CCN1CCN(C(=O)C2CC2)CC1", "cytotoxicity at 70.5 h": 2.37}
{"smiles": "CCC(=O)N1CCN(C(=O)CCn2cc(Cl)cn2)[C@H]2CS(=O)(=O)C[C@H]21", "cytotoxicity at 70.5 h": -5.55}
{"smiles": "CCN1CCc2[nH]cnc2C12CCN(c1ncc(C(=O)O)cc1Cl)CC2", "cytotoxicity at 70.5 h": 3.78}
{"smiles": "CN1CC(Nc2nc3c(cnn3-c3ccccc3)c(=O)[nH]2)CCC1=O", "note": "(stereo not given)", "cytotoxicity at 70.5 h": -10.2}
{"smiles": "Cc1nc2c(c(NCc3cnc4c(c3)CCC4)n1)CNC2", "cytotoxicity at 70.5 h": -6.06}
{"smiles": "O=C1C(NCc2ccc3c(c2)CCO3)CCN1Cc1ccccc1", "note": "(stereo not given)", "cytotoxicity at 70.5 h": -14.7}
{"smiles": "CCc1ocnc1C(=O)N1CCC(C2CCN(c3ncccn3)CC2)C1", "note": "(stereo not given)", "cytotoxicity at 70.5 h": 1.07}
{"smiles": "c1ccc(N2CCC(c3ccncc3)CC2)cc1", "cytotoxicity at 70.5 h": 5.91}
{"smiles": "Cc1cnc(N2CCc3ncnc(N4CCN(C)CC4)c3CC2)nc1", "cytotoxicity at 70.5 h": -2.07}
{"smiles": "CCn1ccc(C(=O)NCCCN2CCOCC2)n1", "cytotoxicity at 70.5 h": -11.6}
{"smiles": "Cc1cc2n(n1)CC(CNCc1ccc(-n3cccn3)cc1)CN2", "note": "(stereo not given)", "cytotoxicity at 70.5 h": -0.128}
{"smiles": "COc1ncc(C2(O)CCN(Cc3c(F)cccc3F)CC2)c(OC)n1", "cytotoxicity at 70.5 h": 31.4}
{"smiles": "CC(=O)NC1CCCN(C(=O)NCCOc2ccc3c(c2)OCO3)C1", "note": "(stereo not given)", "cytotoxicity at 70.5 h": -10.3}
{"smiles": "Cc1nc(N2CCOCC2)nc(C)c1NC(=O)Cc1ccc(Cl)cc1", "cytotoxicity at 70.5 h": 13.5}
{"smiles": "CS(=O)(=O)N1CC[C@]2(O)CCN(CCCC(=O)c3ccccc3)C[C@@H]2C1", "cytotoxicity at 70.5 h": -2.45}
{"smiles": "Cc1nc(NCC(O)CN2CCCCCC2)c2c(C)nn(C)c2n1", "note": "(stereo not given)", "cytotoxicity at 70.5 h": -8.64}
{"smiles": "Cc1cc(-c2ccccc2C(=O)O)nc(C2CCCN(C)C2)n1", "note": "(stereo not given)", "cytotoxicity at 70.5 h": -7.61}
{"smiles": "CCC(CO)NCc1ccc(-c2ccccc2)o1", "note": "(stereo not given)", "cytotoxicity at 70.5 h": 29.3}
{"smiles": "CCOCC(=O)N1C[C@@H]2COC[C@H](c3nc(C)no3)[C@@H]2C1", "cytotoxicity at 70.5 h": -2.34}
{"smiles": "O=C(Cc1csc(N2CCNC2=O)n1)NC(c1ccccc1)C1CC1", "note": "(stereo not given)", "cytotoxicity at 70.5 h": -3.72}
{"smiles": "CCCc1nc2c(c(C)c(C)n2Cc2cccnc2)c(N)c1CC", "cytotoxicity at 70.5 h": 54.7}
{"smiles": "Cc1cc(CN(C)C(=O)c2ccc(F)c(C(F)(F)F)c2)no1", "cytotoxicity at 70.5 h": -1.4}
{"smiles": "CCN(C)c1ccc(CNC(=O)c2cc(C(N)=O)cs2)cc1F", "cytotoxicity at 70.5 h": -8.22}
{"smiles": "CS(=O)(=O)N1CCCC(Cc2cncc(Br)c2)CC1", "note": "(stereo not given)", "cytotoxicity at 70.5 h": -2.69}
{"smiles": "Cn1cccc1C(=O)N1CCc2ccc(=O)n(C)c2CC1", "cytotoxicity at 70.5 h": -6.17}
{"smiles": "Cc1ccn(CCC(=O)NCCc2ccco2)n1", "cytotoxicity at 70.5 h": -3.53}
{"smiles": "Cc1ccc([C@@H]2CN(C(=O)c3cc(C)no3)C[C@H]2NC(=O)C2CC2)cc1", "cytotoxicity at 70.5 h": -6.47}
{"smiles": "CC(CN1CCCC1)C(=O)N1CCC(c2nccn2CC2CC2)CC1", "note": "(stereo not given)", "cytotoxicity at 70.5 h": 12.9}
{"smiles": "CC(C)c1ncncc1C(=O)NCCN1CCCCC1C", "note": "(stereo not given)", "cytotoxicity at 70.5 h": -1.51}
{"smiles": "O=S(=O)(CC1CC1)c1ncc(CN2CCSCC2)n1CC1CCCO1", "note": "(stereo not given)", "cytotoxicity at 70.5 h": -6.13}
{"smiles": "CN1C(=O)CCN(C(=O)C2CCCCC2)c2ccccc21", "cytotoxicity at 70.5 h": 9.73}
{"smiles": "CN(C)C(Cn1ccnc1-c1nccn1C)c1ccccc1Cl", "note": "(stereo not given)", "cytotoxicity at 70.5 h": -5.92}
{"smiles": "Cc1ncsc1CN1C[C@H]2OCC[C@H]2[C@H](C(=O)NCC2CC2)C1", "cytotoxicity at 70.5 h": 2.15}
{"smiles": "CCOC(=O)c1cnn(-c2cc(C)ccn2)c1N", "cytotoxicity at 70.5 h": 8.9}
{"smiles": "CCCN(CCN(C)C)C(=O)Cc1cn2ccsc2n1", "cytotoxicity at 70.5 h": 5.05}
{"smiles": "Cc1ccc(C(=O)N2CCC3(CC2)CC(c2ccccc2)C(=O)N3)o1", "note": "(stereo not given)", "cytotoxicity at 70.5 h": -5.53}
{"smiles": "CCn1cnnc1CNC(=O)c1cc(Cl)ccc1O", "cytotoxicity at 70.5 h": 22.7}
{"smiles": "Cc1ccsc1CN(CCN(C)C)C(=O)C1=NNC(=O)CC1", "cytotoxicity at 70.5 h": -9.85}
{"smiles": "N#Cc1nccnc1NCCC1CCN(CC(F)(F)F)CC1", "cytotoxicity at 70.5 h": 21.7}
{"smiles": "N#CC(NC(=O)c1cccc2c1OCCO2)c1ccc(F)cc1F", "note": "(stereo not given)", "cytotoxicity at 70.5 h": -4.12}
{"smiles": "Cc1ccc(C(CNC(=O)c2c(C)noc2C(C)C)N(C)C)cc1", "note": "(stereo not given)", "cytotoxicity at 70.5 h": -4.44}
{"smiles": "CC(C)NC(=O)N1CCN(C(=O)C2CCOCC2)CC2(CNC(=O)C2)C1", "note": "(stereo not given)", "cytotoxicity at 70.5 h": -16}
{"smiles": "COc1ncccc1CN1CC[C@@]2(O)CCN(C(=O)C3CCC3)C[C@H]2C1", "cytotoxicity at 70.5 h": -5.11}
{"smiles": "Cc1nc(CN2CCCC(NCc3cccc4ccccc34)C2)no1", "note": "(stereo not given)", "cytotoxicity at 70.5 h": 27.7}
{"smiles": "C[S+]([O-])c1nncn1CC(=O)c1cccc(Cl)c1", "note": "(stereo not given)", "cytotoxicity at 70.5 h": -7.53}
{"smiles": "CC1CCN(CC(O)CNc2ccc(Cl)cn2)CC1", "note": "(stereo not given)", "cytotoxicity at 70.5 h": -1.66}
{"smiles": "CC(C)c1cc(C(=O)NCCN2CCCCC2CO)on1", "note": "(stereo not given)", "cytotoxicity at 70.5 h": -7}
{"smiles": "O=C(CS(=O)(=O)Cc1nnnn1C1CC1)NCCc1ccccc1", "cytotoxicity at 70.5 h": -3.81}
{"smiles": "COc1ccc(-c2c(C)nn3c(=N)c(C#N)n[nH]c23)cc1", "cytotoxicity at 70.5 h": -12.3}
{"smiles": "O=C(C1CCCN1c1ncnc2ccsc12)N1CCSCC1", "note": "(stereo not given)", "cytotoxicity at 70.5 h": -9.24}
{"smiles": "CN(Cc1cnn(C)c1)C(=O)NCCc1ccc2c(c1)OCO2", "cytotoxicity at 70.5 h": -1.01}
{"smiles": "COc1cccc(-c2n[nH]c3c2CN(C(=O)c2cccc(=O)[nH]2)CC3)c1", "cytotoxicity at 70.5 h": -6.52}
